# Source: patent publication US4769369A, “Anti-allergy 1(2H)-phthalazinones” (Pennwalt Corporation, priority 1986, dated 1988)
# Structures can show the parent of a compound that is named as a salt.
# Columns and labels:
# [1] = test system: LTC4 induced contractions of the guinea pig ileum; assay: Guinea Pig Ileum Test: inhibition of LTC4-induced guinea pig smooth muscle contractions; type: cell-based; settings: Cavia porcellus, 6 nanomoles LTC4
# Protocol: Four replicate, small pieces of guinea pig ileum were suspended in Kreb's physiological salt solution in a 10 ml tissue bath to a gram tension of approximately 1.0. These pieces of tissue were then chemically stimulated with 6 microliters of purified leukotriene C4 (LTC4) yielding a final concentration in the bath of 6 nanomoles. Responses (tissue contraction) were measured isometrically using a Harvard transducer and a Beckman recorder. Upon addition of the LTC4, the tissue was allowed to sit for approximately 15-30 minutes to reach maximal stimulation. The test compound dissolved in a maximum volume of 100 microliters of either saline, dimethylsulfoxide or ethanol was then added to the tissue preparation and the change in gram tension was recorded.
# [2] = test system: Active Anaphylaxis Response in Male, Sprague Dawley Rats; assay: Rat Anaphylaxis Test (active anaphylaxis, paw edema); type: in vivo; settings: for Paw Volume Mean ± S.E.: in mmHg (unit assumed)
# Protocol: In the rat anaphylaxis test, groups consisting of 15-20 rats are intraperitoneally sensitized on day zero with 500 μg of bovine serum albumin-absorbed alum admixed with 2×10^10 killed Bordatella pertussis vaccine organisms. Fourteen days later, the test compound suspended in 0.5 to 1.0 ml of 1% Cleargel or saline (0.85% NaCl in H2 O) is administered ip or po and, one hour later, the right hind paw is injected subcutaneously with 100 μg of bovine serum albumin dissolved in 0.1 ml of saline. The paw volume is measured using a mercury plethysmometer prior to drug administration and 90 minutes post antigenic challenge. The present inhibition of edema is calculated as the difference in volume between the control and drug treated groups, divided by the control volume, and then multiplied times 100. The positive control drug, theophylline (90 mg/kg, po) is included in each assay. Statistical analysis of the data is done using an analysis of variance program. See Tables 2 and 3 for results obtained with this test.
# In Tables 2 and 3, and elsewhere in this application, PR 948-257C stands for trans-6-[2-(4-methoxyphenyl)ethenyl]-2-[3-(dimethylamino)propyl]-phthalazin-1(2H)-one hydrobromide.
# [3] = test system: serotonin; assay: Rat Allergic Mediator Induced Dermal Vascular Permeability Test, serotonin challenge; type: in vivo
# Protocol: (§1) Ten minutes later, the animals are challenged by intradermally injecting 0.1 ml of a water solution of either serotonin (1 μg/ml), histamine (20 μg/ml) or bradykinin (10 μg/ml) into separate sites on the back. Five minutes following challenge the animals are killed, the skin retracted, and the mean diameter of the blue wheal and flare reaction is calculated as the difference in mean diameter between a saline control and the drug treated group, divided by the control diameter, and then multiplied times 100. Statistical analysis of the data is done using a Student T-test program. See Tables 4 (ip administration of test compound) and 5 (po administration of test compound) for results obtained with the rat allergic mediator induced dermal vascular permeability test. (Set: Serotonin; His: histamine; Bk: bradykinin)
# [4] = test system: histamine; assay: Rat Allergic Mediator Induced Dermal Vascular Permeability Test, histamine challenge; type: in vivo
# Protocol: as §1, with “See Tables 4 (ip administration of test compound) and 5 (po administration of test compound) for results obtained with the rat allergic mediator induced dermal vascular permeability test.” left out
# [5] = test system: bradykinin; assay: Rat Allergic Mediator Induced Dermal Vascular Permeability Test, bradykinin challenge; type: in vivo
# Protocol: as §1
# [6] = Table 2, first group set, 50 mg/kg ip
# [7] = Table 2, first group set, 75 mg/kg ip
# [8] = Table 2, first group set, 100 mg/kg ip
# [9] = Table 2, second group set, 6.25 mg/kg ip
# [10] = Table 2, second group set, 12.5 mg/kg ip
# [11] = Table 2, second group set, 25 mg/kg ip
# [12] = Table 2, third group set, 2.5 mg/kg ip
# [13] = Table 2, third group set, 4 mg/kg ip
# [14] = Table 2, third group set, 6 mg/kg ip
# [15] = Table 2, first group set, 90 mg/kg po, N 17
# [16] = Table 2, second group set, 90 mg/kg po, N 20
# [17] = Table 2, third group set, 90 mg/kg po, N 29
# [18] = Table 4 (ip administration of test compound), 1 mg/kg
# [19] = Table 5 (po administration of test compound), 1 mg/kg
compound,measurement,setting,value
"Br.COc1ccc(/C=C/c2ccc3c(=O)n(CCCN(C)C)ncc3c2)cc1 [Example XII, Trans-6-[2-(4-methoxyphenyl)ethenyl]-2-[3-(dimethylamino)propyl]-phthalazin-1(2H)-one hydrobromide]",IC50,[1],13.6 µM
same,% Inhibition,[2]; [6],56%
same,Paw Volume Mean ± S.E.,[2]; [6],1.7 ± 1.3
same,% Inhibition,[2]; [7],83%
same,Paw Volume Mean ± S.E.,[2]; [7],0.7 ± 0.8
same,% Inhibition,[2]; [8],91%
same,Paw Volume Mean ± S.E.,[2]; [8],0.4 ± 0.8
same,% Inhibition,[2]; [9],48%
same,Paw Volume Mean ± S.E.,[2]; [9],2.2 ± 1.9
same,% Inhibition,[2]; [10],52%
same,Paw Volume Mean ± S.E.,[2]; [10],2.1 ± 1.8
same,% Inhibition,[2]; [11],55%
same,Paw Volume Mean ± S.E.,[2]; [11],1.9 ± 1.4
same,% Inhibition,[2]; [12],+11%
same,Paw Volume Mean ± S.E.,[2]; [12],4.7 ± 2.8
same,% Inhibition,[2]; [13],+14%
same,Paw Volume Mean ± S.E.,[2]; [13],4.9 ± 2.3
same,% Inhibition,[2]; [14],12%
same,Paw Volume Mean ± S.E.,[2]; [14],3.7 ± 2.6
same,% Inhibition,"[2]; Table 3, 50 mg/kg po",14%
same,Paw Volume ± S.E.,"[2]; Table 3, 50 mg/kg po",3.10 ± .55 mm of Hg
same,% Inhibition,"[2]; Table 3, 75 mg/kg po",37%
same,Paw Volume ± S.E.,"[2]; Table 3, 75 mg/kg po",2.26 ± .32 mm of Hg
same,% Inhibition,"[2]; Table 3, 100 mg/kg po",54%
same,Paw Volume ± S.E.,"[2]; Table 3, 100 mg/kg po",1.65 ± .36 mm of Hg
same,"% Inhibition, Ser","[3]; Table 4, 12.5 mg/kg ip",26.1%
same,"Wheal Measurement, Ser","[3]; Table 4, 12.5 mg/kg ip",8.2 mm
same,"% Inhibition, Ser","[3]; Table 4, 25 mg/kg ip",51.4%
same,"Wheal Measurement, Ser","[3]; Table 4, 25 mg/kg ip",5.4 mm
same,"% Inhibition, Ser","[3]; Table 4, 50 mg/kg ip",68.5%
same,"Wheal Measurement, Ser","[3]; Table 4, 50 mg/kg ip",3.5 mm
same,"% Inhibition, Ser","[3]; Table 5, 12.5 mg/kg po",23.3%
same,"Wheal Measurement, Ser","[3]; Table 5, 12.5 mg/kg po",7.9 mm
same,"% Inhibition, Ser","[3]; Table 5, 25 mg/kg po",42.7%
same,"Wheal Measurement, Ser","[3]; Table 5, 25 mg/kg po",5.9 mm
same,"% Inhibition, Ser","[3]; Table 5, 50 mg/kg po",61.1%
same,"Wheal Measurement, Ser","[3]; Table 5, 50 mg/kg po",4.0 mm
same,"% Inhibition, His","[4]; Table 4, 12.5 mg/kg ip",26.8%
same,"Wheal Measurement, His","[4]; Table 4, 12.5 mg/kg ip",8.2 mm
same,"% Inhibition, His","[4]; Table 4, 25 mg/kg ip",50.0%
same,"Wheal Measurement, His","[4]; Table 4, 25 mg/kg ip",5.6 mm
same,"% Inhibition, His","[4]; Table 4, 50 mg/kg ip",75.9%
same,"Wheal Measurement, His","[4]; Table 4, 50 mg/kg ip",2.7 mm
same,"% Inhibition, His","[4]; Table 5, 12.5 mg/kg po",17%
same,"Wheal Measurement, His","[4]; Table 5, 12.5 mg/kg po",8.3 mm
same,"% Inhibition, His","[4]; Table 5, 25 mg/kg po",57%
same,"Wheal Measurement, His","[4]; Table 5, 25 mg/kg po",4.3 mm
same,"% Inhibition, His","[4]; Table 5, 50 mg/kg po",71%
same,"Wheal Measurement, His","[4]; Table 5, 50 mg/kg po",2.9 mm
same,"% Inhibition, Bk","[5]; Table 4, 12.5 mg/kg ip",32.1%
same,"Wheal Measurement, Bk","[5]; Table 4, 12.5 mg/kg ip",7.4 mm
same,"% Inhibition, Bk","[5]; Table 4, 25 mg/kg ip",47.7%
same,"Wheal Measurement, Bk","[5]; Table 4, 25 mg/kg ip",5.7 mm
same,"% Inhibition, Bk","[5]; Table 4, 50 mg/kg ip",74.3%
same,"Wheal Measurement, Bk","[5]; Table 4, 50 mg/kg ip",2.8 mm
same,"% Inhibition, Bk","[5]; Table 5, 12.5 mg/kg po",12.1%
same,"Wheal Measurement, Bk","[5]; Table 5, 12.5 mg/kg po",8.0 mm
same,"% Inhibition, Bk","[5]; Table 5, 25 mg/kg po",48.4%
same,"Wheal Measurement, Bk","[5]; Table 5, 25 mg/kg po",4.7 mm
same,"% Inhibition, Bk","[5]; Table 5, 50 mg/kg po",63.8%
same,"Wheal Measurement, Bk","[5]; Table 5, 50 mg/kg po",3.3 mm
"COc1ccc(/C=C/c2ccc3c(=O)n(CCN4CCOCC4)ncc3c2)cc1 [Example IV, Trans-6-[2-(4-methoxyphenyl)ethenyl]-2-(2-morpholinoethyl)phthalazin-1(2H)-one hydrobromide]",IC50,[1],0.1 µM
"COc1ccc(CCc2ccc3c(=O)n(CCCN(C)C)ncc3c2)cc1 [Example VI, 6-[2-(4-methoxyphenyl)ethyl]-2-[3-(dimethylamino)propyl]phthalazin-1(2H)-on]",IC50,[1],16.8 µM
"CSc1ccc(/C=C/c2ccc3c(=O)n(CCCN(C)C)ncc3c2)cc1 [Example XI, Trans-6-[2-[4-(methylthio)phenyl]ethenyl]-2-[3-(dimethylamino)propyl]phthalazin-1(2H)-one]",IC50,[1],10 µM
"COc1ccc(/C=C\c2ccc3c(=O)n(CCCN(C)C)ncc3c2)cc1 [Example X, Cis-6-[2-(4-methoxyphenyl)ethenyl]-2-[3-dimethylaminopropyl]phthalazin-1(2H)-one cyclohexylsulfamate]",IC50,[1],10.5 µM
"COc1ccc(/C=C/c2ccc3c(=O)n(CCCN4CCCCC4)ncc3c2)cc1 [Example II, Trans-6-[2-(4-methoxyphenyl)ethenyl]-2-(3-piperidinopropyl)phthalazin-1(2H)-one hydrobromide]",IC50,[1],3.4 µM
"COc1ccc(/C=C/c2ccc3c(=O)n(CCCCN(C)C)ncc3c2)cc1 [Example IX, Trans-6-[2-(4-methoxyphenyl)ethenyl]-2-[4-dimethylamino)butyl]phthalazin-1(2H)-one bromide]",IC50,[1],10 µM
"Cn1c(=O)c2[nH]cnc2n(C)c1=O [Theophylline, theophylline, reference compound]",% Inhibition,[2]; [15],76%
same,Paw Volume Mean ± S.E.,[2]; [15],0.9 ± 0.7
same,% Inhibition,[2]; [16],92%
same,Paw Volume Mean ± S.E.,[2]; [16],0.4 ± 0.6
same,% Inhibition,[2]; [17],87%
same,Paw Volume Mean ± S.E.,[2]; [17],0.5 ± 0.5
same,% Inhibition,"[2]; Table 3, 90 mg/kg po",82%
same,Paw Volume ± S.E.,"[2]; Table 3, 90 mg/kg po",0.65 ± .2 mm of Hg
"CN(C)CCn1ncc2cc(/C=C/c3ccc(O)cc3)ccc2c1=O [Example XIV, Trans-6-[2-(4-Hydroxyphenyl)ethenyl]-2-(2-dimethylaminoethyl)-1(2H)-phthalazinone hydrochloride]",IC50,[1],31.6 µM
"CN1CCC(=C2c3ccccc3C=Cc3ccccc32)CC1 [Cyproheptadine, cyproheptadine, reference compound]","% Inhibition, Ser",[3]; [18],74.8%
same,"Wheal Measurement, Ser",[3]; [18],2.8 mm
same,"% Inhibition, Ser",[3]; [19],95.1%
same,"Wheal Measurement, Ser",[3]; [19],0.5 mm
same,"% Inhibition, Bk",[5]; [18],60.6%
same,"Wheal Measurement, Bk",[5]; [18],4.3 mm
same,"% Inhibition, Bk",[5]; [19],86.8%
same,"Wheal Measurement, Bk",[5]; [19],1.2 mm
"COc1ccc(/C=C/c2ccc3c(=O)n(CCN(C)C)ncc3c2)cc1 [Example III, Trans-6-[2-(4-methoxyphenyl)ethenyl]-2-[2-(dimethylamino)ethyl]-phthalazin-1(2H)-one hydrobromide]",IC50,[1],16.6 µM
